Test results published in ChEMBL document CHEMBL3297720, “Synthesis and evaluation of N-alkyl-9-aminoacridines with antibacterial activity” (2014).
Converted amounts (≈) assume the structure as drawn. The source made the active and inactive calls. The rule behind the calls is not given here.

Experiments:
Staphylococcus aureus [1] = test: Antibacterial activity against methicillin-resistant Staphylococcus aureus ATCC 43300 after 16 to 20 hrs by broth microdilution assay; type: functional
Staphylococcus aureus [2] = test: Antibacterial activity against methicillin-resistant Staphylococcus aureus IDRL 6169 after 16 to 20 hrs by broth microdilution assay; type: functional
Staphylococcus aureus [3] = test: Antibacterial activity against methicillin-sensitive Staphylococcus aureus […] 8545 after 16 to 20 hrs by broth microdilution assay; type: functional
Nucleic Acid = test: Binding affinity to relaxed plasmid DNA (unknown origin) assessed as DNA intercalation at 4 to 100 uM after 10 mins by gel electrophoresis in presence of human topoisomerase 1; type: nucleic-acid assay

Structure (SMILES)	MIC99 (Staphylococcus aureus [1])	MIC99 (Staphylococcus aureus [2])	MIC99 (Staphylococcus aureus [3])	Activity (Nucleic Acid)
CCCCCCCCCCCCCCNc1c2ccccc2nc2cc(C(=O)N3CCN(C)CC3)ccc12	5.82 µM (≈ 3.01 µg/mL)	6.13 µM (≈ 3.17 µg/mL)	6.25 µM (≈ 3.23 µg/mL)	–
CCCCCCCCNc1c2ccccc2nc2ccccc12	8.54 µM (≈ 2.62 µg/mL)	10.8 µM (≈ 3.31 µg/mL)	10.3 µM (≈ 3.14 µg/mL)	–
CCCCCCCCCCCCNc1c2ccccc2nc2cc(C(=O)N3CCN(C)CC3)ccc12	6.28 µM (≈ 3.07 µg/mL)	5.87 µM (≈ 2.87 µg/mL)	4.8 µM (≈ 2.35 µg/mL)	–
CCCCNc1c2ccccc2nc2cc(C(=O)N3CCN(C)CC3)ccc12	> 100 µM	> 100 µM	> 100 µM	–
CCCCCCCCCCCCCCCNc1c2ccccc2nc2cc(C(=O)N3CCN(C)CC3)ccc12	4.59 µM (≈ 2.44 µg/mL)	8.59 µM (≈ 4.56 µg/mL)	5.91 µM (≈ 3.14 µg/mL)	–
CCCCNc1c2ccccc2nc2ccccc12	> 100 µM	> 100 µM	> 100 µM	–
CCCCCCCCCCCCCCNc1c2ccccc2nc2ccccc12	3.07 µM (≈ 1.2 µg/mL)	2.15 µM (≈ 0.84 µg/mL)	2.98 µM (≈ 1.16 µg/mL)	–
CCCCCNc1c2ccccc2nc2cc(C(=O)N3CCN(C)CC3)ccc12	> 100 µM	> 100 µM	> 100 µM	–
CCCCCCCCCCCCNc1c2ccccc2nc2ccccc12	2.88 µM (≈ 1.04 µg/mL)	2.73 µM (≈ 0.99 µg/mL)	2.88 µM (≈ 1.04 µg/mL)	–
CCCNc1c2ccccc2nc2ccccc12	> 100 µM	> 100 µM	> 100 µM	Active
CCCNc1c2ccccc2nc2cc(C(=O)N3CCN(C)CC3)ccc12	> 100 µM	> 100 µM	> 100 µM	Active
CCCCCCCCCCNc1c2ccccc2nc2cc(C(=O)N3CCN(C)CC3)ccc12	12.2 µM (≈ 5.6 µg/mL)	10.7 µM (≈ 4.95 µg/mL)	12 µM (≈ 5.51 µg/mL)	inactive
CCCCCCCCCCCCCCCCNc1c2ccccc2nc2cc(C(=O)N3CCN(C)CC3)ccc12	6.23 µM (≈ 3.39 µg/mL)	9.06 µM (≈ 4.94 µg/mL)	11.6 µM (≈ 6.31 µg/mL)	–
CCCCCCCCNc1c2ccccc2nc2cc(C(=O)N3CCN(C)CC3)ccc12	> 100 µM	> 100 µM	> 100 µM	–
CCCCCCCCCNc1c2ccccc2nc2ccccc12	3.19 µM (≈ 1.02 µg/mL)	3.59 µM (≈ 1.15 µg/mL)	5.95 µM (≈ 1.91 µg/mL)	–
CCCCCCCNc1c2ccccc2nc2cc(C(=O)N3CCN(C)CC3)ccc12	> 100 µM	> 100 µM	> 100 µM	–
CCCCCCCCCCNc1c2ccccc2nc2ccccc12	2.19 µM (≈ 0.733 µg/mL)	3.29 µM (≈ 1.1 µg/mL)	2.61 µM (≈ 0.873 µg/mL)	inactive
CCCCCCCNc1c2ccccc2nc2ccccc12	24.5 µM (≈ 7.16 µg/mL)	22.9 µM (≈ 6.68 µg/mL)	27.5 µM (≈ 8.05 µg/mL)	–
CCCCCCCCCCCCCCCCNc1c2ccccc2nc2ccccc12	24.7 µM (≈ 10.3 µg/mL)	10.1 µM (≈ 4.25 µg/mL)	26.2 µM (≈ 11 µg/mL)	–
CCCCCCNc1c2ccccc2nc2cc(C(=O)N3CCN(C)CC3)ccc12	> 100 µM	> 100 µM	> 100 µM	–
CCCCCCCCCCCNc1c2ccccc2nc2cc(C(=O)N3CCN(C)CC3)ccc12	3.61 µM (≈ 1.71 µg/mL)	6.14 µM (≈ 2.91 µg/mL)	6.23 µM (≈ 2.96 µg/mL)	–
CCCCCCCCCCCCCCCNc1c2ccccc2nc2ccccc12	6.1 µM (≈ 2.47 µg/mL)	3.21 µM (≈ 1.3 µg/mL)	5.69 µM (≈ 2.3 µg/mL)	–
CCCCCNc1c2ccccc2nc2ccccc12	> 100 µM	> 100 µM	> 100 µM	–
CCCCCCCCCNc1c2ccccc2nc2cc(C(=O)N3CCN(C)CC3)ccc12	22.7 µM (≈ 10.1 µg/mL)	23.7 µM (≈ 10.6 µg/mL)	35.5 µM (≈ 15.8 µg/mL)	–
CCCCCCCCCCCCCNc1c2ccccc2nc2ccccc12	3.04 µM (≈ 1.14 µg/mL)	2.8 µM (≈ 1.05 µg/mL)	2.61 µM (≈ 0.983 µg/mL)	–
CCCCCCNc1c2ccccc2nc2ccccc12	50.6 µM (≈ 14.1 µg/mL)	46.9 µM (≈ 13.1 µg/mL)	> 100 µM	–
CCCCCCCCCCCCCNc1c2ccccc2nc2cc(C(=O)N3CCN(C)CC3)ccc12	2.91 µM (≈ 1.46 µg/mL)	3.07 µM (≈ 1.54 µg/mL)	3.57 µM (≈ 1.79 µg/mL)	–
CCCCCCCCCCCNc1c2ccccc2nc2ccccc12	2.01 µM (≈ 0.701 µg/mL)	2.73 µM (≈ 0.951 µg/mL)	3.81 µM (≈ 1.33 µg/mL)	–
